From patent publication US20050261239A1, “Use of ATP for the manufacture of a medicament for treating certain inflammatory conditions, oxidative stress and fatigue” (Universiteit van Maastricht, priority 2004, published 2005)
Entries after “also recorded” stand apart in the source; their conditions may differ. Like-named read-outs stand apart in the source and are kept apart here.

Tests used:
IL-10 [1] = test: Purinergic compounds on LPS+PHA-induced IL-10 release in whole blood, Experiment 3; format: cell-based, human; settings: pretreatment of whole blood; initial findings; ATP compared with ADP, AMP or adenosine
Protocol: (§1) Blood is collected as described for Experiment 1. Whole blood is then aliquoted into 24-well sterile plates and diluted 1:4 with RPMI 1640 (supplemented with L-glutamine). To induce cytokine production, PHA and bacterial LPS are added to whole blood at 1 μg/ml and 10 μg/ml respectively. After addition of ATP and stimulants, the plates are incubated in 5% CO2 at 37° C. for 24 h. Cell-free supernatant fluids are then collected by centrifugation (6000 rpm, 10 min at 4° C.) and stored at −20° C. until tested for presence of cytokines. All incubations are performed in duplicate. ATP, dissolved in RPMI 1640 culture medium, is added to the blood at a final concentration of 1-1000 μM. Blood is pre-incubated with ATP at 5% CO2 at 37° C. for 30 min before stimulation with LPS+PHA. The agonists are added in the same way as ATP, however their stock solutions are prepared in PBS and further diluted in medium.

TNF-α [2] = test: Purinergic compounds on LPS+PHA-induced TNF-α secretion in whole blood, Experiment 3; format: cell-based, human; settings: for inhibiting TNFα production in LPS-PHA stimulated whole blood, compared with ATP: pretreatment of whole blood, initial findings, ATP compared with ADP, AMP or adenosine; for effect on LPS+PHA-induced TNF-α release (FIG. 8): compound at 300 μM, 24 h, order of inhibition adenosine<AMP<ADP<ATP; for anti-inflammatory effects relative to those of ATP: same whole blood model ex vivo
Protocol: as §1

[3] = tested on: mice bearing colon tumour; settings: daily intraperitoneal injections of 25 mmol/L for 10 consecutive days (refs 9, 10), cited from earlier work
[4] = tested on: healthy non-smoking human subjects; test: Lactulose/rhamnose (L/R) intestinal permeability test after indomethacin, Experiment 4; format: in vivo; settings: indomethacin (75 mg + 50 mg) and ATP into duodenum vs indomethacin only; 5 h urine
Protocol: Methods Intestinal permeability is tested in healthy non-smoking human subjects using the lactulose/rhamnose (L/R) intestinal permeability test. This barrier function test is based on the comparison of intestinal permeation of molecules of different sizes by measuring the ratio of urinary excretion of the disaccharide lactulose and the monosaccharide rhamnose. These two sugars follow different routes of intestinal permeation, i.e., lactulose permeates through the paracellular pathway, whereas rhamnose permeates transcellulary. The experiments are performed as follows: at t=−14 hrs, a Bengmark-type naso-intestinal tube (Flocare, Zoetermeer, The Netherlands) is installed into the stomach. Next, at t=−10 hrs, subjects ingest a capsule of indomethacin (75 mg) immediately followed by administration of either ATP or placebo directly into the subject's duodenum through the inserted tube. At t=−1 hr, after an overnight fast, subjects receive a second dose of indomethacin (50 mg) followed by either ATP or placebo. Then, at t=0, the permeability test is performed as follows: subjects ingest a hyperosmolar drink containing 5 g of lactulose and 0.5 g of L-rhamnose dissolve d in […] water. After ingestion of the hyperosmolar test drink, total urine produced over 5 hours is collected.

TNF-α [5] = test: LPS+PHA-induced TNF-α secretion in whole blood ex vivo (ELISA), Experiment 1; format: cell-based, human; settings: 24 h
Source text: (§2) For the first experiment, purified phyto-haemagglutinin HA16 (PHA) and E. Coli 0.26: B6 lipopolysaccharide (LPS) were from Murex, Dartford, UK and Sigma Chemical Co, St. Louis, USA, respectively. Human TNF-α (7300 pg/ml) was obtained from CLB/Sanquin, The Netherlands. RPMI 1640 medium containing L-glutamine was obtained from Gibco, UK. Adenosine-5′-triphosphate disodium salt (ATP) was purchased from Calbiochem, USA.
(§3) Blood was collected from 8 healthy subjects in heparin containing vacutainer tubes (Vacutainer, Becton-Dickinson, 170 I.U). […] Whole blood was aliquoted into 24-well sterile plates and diluted 1:4 with RPMI 1640 (supplemented with L-glutamine). To induce cytokine production, PHA and bacterial LPS were added at 1 μg/ml and 10 μg/ml final concentration respectively. […]
(§4) All cytokines were quantified by means of PeliKine Compact human ELISA kits (CLB/Sanquin, The Netherlands), based on appropriate and validated sets of monoclonal antibodies. […] The antibody on the microtiter plate then captured the cytokine present in a measured volume of sample or standard, and non-bound material was removed by washing. […] Color development was stopped by addition of sulfuric acid and the intensity of the color was measured by a microtiter plate reader (absorbance at 450 nm). The absorbance was transformed to cytokine concentrations (ng/L) using the standard curve. […]

TNF-α [6] = test: LPS+PHA-induced TNF-α secretion in whole blood under oxidative stress (H2O2), Experiment 2; format: cell-based, human; settings: whole blood with 1 or 10 mM H2O2, 24 h; effect at 100 and 300 μM ATP; disodium salt
Protocol: (§5) Blood was collected from 8 healthy subjects in heparin containing vacutainer tubes (Vacutainer, Becton-Dickinson, 170 I.U). […] Whole blood was aliquoted into 24-well sterile plates and diluted 1:4 with RPMI 1640 (supplemented with L-glutamine). To induce cytokine production, PHA and bacterial LPS were added at 1 μg/ml and 10 μg/ml final concentration respectively. After adding the concentrated solutions of ATP and the stimulants the plates were incubated in 5% CO2 at 37° C. for 24 h. After the incubation cell-free supernatant fluids were collected by centrifugation (6000 rpm, 10 min at 4° C.) and stored at −20° C. until tested for presence of cytokines.
as §4, with “antibodies. Assays were performed as follows.” for “antibodies.”

IL-6 [7] = test: LPS+PHA-induced IL-6 secretion in whole blood ex vivo (ELISA), Experiment 1; format: cell-based, human; settings: whole blood of healthy subjects, 24 h; ATP 1-300 μM; disodium salt
Source text: as §2, §3, §4

IL-10 [8] = test: LPS+PHA-induced IL-10 secretion in whole blood under oxidative stress (H2O2), Experiment 2; format: cell-based, human; settings: whole blood with 1 or 10 mM H2O2, 24 h; ATP 1-300 μM; disodium salt
Protocol: as §5
as §4, with “antibodies. Assays were performed as follows.” for “antibodies.”

[9] = tested on: patients with non-small cell lung cancer; settings: 15 newly diagnosed patients; after 4 ATP courses (ref 12); cited from earlier work
IL-10 [10] = test: LPS+PHA-induced IL-10 secretion in whole blood ex vivo (ELISA), Experiment 1; format: cell-based, human; settings: 24 h
Source text: as §2, §3, §4

[11] = tested on: patients with non-small cell lung cancer; settings: 8 stage IIIB/IV patients; 2 to 3 intravenous courses of 96 hours at 4-week intervals (ref 11); cited from earlier work
IL-6 [12] = test: LPS+PHA-induced IL-6 secretion in whole blood under oxidative stress (H2O2), Experiment 2; format: cell-based, human; settings: whole blood with 1 or 10 mM H2O2, 24 h; ATP 1-300 μM; disodium salt
Protocol: as §5
as §4, with “antibodies. Assays were performed as follows.” for “antibodies.”

[13] = tested on: advanced non-small-cell lung cancer patients; settings: cited from earlier work
cancer patients = test: Safety of intravenous ATP home infusions in cancer patients; format: in vivo, human; settings: over 60 intravenous home infusions in cancer patients
Source text: In order to determine the tolerance for ATP as well as the maximally tolerated dose of ATP, the first ATP infusion is preferably administered under medical supervision, usually in an in- or outpatient setting. Subsequent infusions can either be started at the hospital day care centre, at private homes, nursing homes, etc. according to a standardized protocol.

[14] = whole blood of healthy subjects, effect at 100 and 300 μM ATP (tested 1-300 μM), disodium salt

Which results are given for `CSc1nc(N)c2ncn([C@@H]3O[C@H](COP(=O)(O)OP(=O)(O)OP(=O)(O)O)[C@@H](O)[C@H]3O)c2n1` [2-MeS-ATP, reference compound]?
stimulating IL-10 production in LPS-PHA stimulated whole blood, compared with ATP (IL-10 [1]): at least partly mimicked; inhibiting TNFα production in LPS-PHA stimulated whole blood, compared with ATP (TNF-α [2]): at least partly mimicked

Which results are given for `Nc1ncnc2c1ncn2[C@@H]1O[C@H](COP(=O)(O)OP(=O)(O)O)[C@@H](O)[C@H]1O` [ADP]?
effect on LPS+PHA-induced TNF-α release (FIG. 8) (TNF-α [2]): inhibited; anti-inflammatory effects relative to those of ATP (TNF-α [2]): less marked

With `Nc1ncnc2c1ncn2[C@@H]1O[C@H](COP(=O)(O)O)[C@@H](O)[C@H]1O` [AMP] as the compound, how does the host weight loss [3] read?
Its host weight loss is “significant inhibition of host weight loss”.

What about the “effect on LPS+PHA-induced TNF-α release (FIG. 8)” value (shortened to “effect … (FIG. 8)”) (TNF-α [2]) of the same compound?
Its value is “inhibited”.

And the “anti-inflammatory effects relative to those of ATP” value (TNF-α [2])?
Its value is “less marked”.

What does the source list for `Nc1ncnc2c1ncn2[C@@H]1O[C@H](COP(=O)([O-])OP(=O)([O-])OP(=O)(O)O)[C@@H](O)[C@H]1O.[Na+].[Na+]` [ATP, Adenosine-5′-triphosphate disodium salt]?
stimulating IL-10 production in LPS-PHA stimulated whole blood, compared with ATP (IL-10 [1]): more effective; urinary concentration ratio of lactulose relative to rhamnose [4]: lower; host weight loss [3]: significant inhibition of host weight loss; inhibition at 300 µM (TNF-α [5]; Homo sapiens, 300 μM ATP, whole blood, 10 μg/ml LPS + 1 μg/ml PHA, vs stimulation without ATP, read-out: inhibition of the TNF-α production): 65%; effect on LPS+PHA-induced TNF-α release (TNF-α [5]; [14]): dose-dependent inhibition; also recorded: significantly inhibited; effect on LPS+PHA-induced TNF-α release under oxidative stress (TNF-α [6]): dose-dependent reduction; also recorded: significantly inhibited; effect on LPS+PHA-induced TNF-α release (FIG. 8) (TNF-α [2]): greatest inhibition; inhibiting TNFα production in LPS-PHA stimulated whole blood, compared with ATP (TNF-α [2]): more effective; effect on LPS+PHA-induced IL-6 release (IL-6 [7]): failed to significantly alter; also recorded: not influenced; effect on LPS+PHA-induced IL-10 release under oxidative stress (IL-10 [8]): significant, dose-dependent rise; also recorded: significantly increased; average weight gain [9]: 1.3 kg; stimulation of the IL-10 production (IL-10 [10]; 300 μM ATP, whole blood, 10 μg/ml LPS + 1 μg/ml PHA, vs stimulation without ATP): 62%; effect on LPS+PHA-induced IL-10 release (IL-10 [10]; [14]): increased the release of IL-10; also recorded: significantly increased; body weight [11]: stabilisation of body weight; effect on LPS+PHA-induced IL-6 release under oxidative stress (IL-6 [12]): no effect; also recorded: not influenced; physical and functional quality of life, appetite, and muscle strength ([13]; ATP group, progressively deteriorated in control group (ref 13)): remained stable; life-threatening side effects ([13]; ATP infusion during 30 hrs, previous study (13)): did not find any life-threatening side effects; plasma levels of pro- or anti-inflammatory cytokines ([13]; further analyses, Dagnelie et al. 2003, unpublished data): no effect; loss of weight and muscle mass ([13]; regular infusions vs control group with supportive care only (ref 13)): inhibited loss of weight and muscle mass; hospital admissions (cancer patients): No hospital admissions were necessary; serious side effects on the WHO Common Toxicity Criteria scale (cancer patients): no serious side effects grade 3-4

With `Nc1ccn([C@@H]2O[C@H](COP(=O)(O)OP(=O)(O)OP(=O)(O)O)[C@@H](O)[C@H]2O)c(=O)n1` [CTP] as the compound, how does the “effect … (FIG. 8)” value (TNF-α [2]) read?
Its value is “not inhibited”.

With `O=c1ccn([C@@H]2O[C@H](COP(=O)(O)OP(=O)(O)O)[C@@H](O)[C@H]2O)c(=O)[nH]1` [UDP] as the compound, how does the “effect … (FIG. 8)” value (TNF-α [2]) read?
The value was “not inhibited”.

For `O=c1ccn([C@@H]2O[C@H](COP(=O)(O)OP(=O)(O)OP(=O)(O)O)[C@@H](O)[C@H]2O)c(=O)[nH]1` [UTP, uridine 5′-triphosphate], which “effect … (FIG. 8)” value (TNF-α [2]) is on record?
The value was “not inhibited”.

With `Nc1ncnc2c1ncn2[C@@H]1O[C@H](CO)[C@@H](O)[C@H]1O` [adenosine] as the compound, how does the host weight loss [3] read?
The host weight loss was “significant inhibition of host weight loss”.

And the host weight loss ([3]; listed as adenosine without phosphate)?
Its host weight loss is “ineffective”.

What about the “effect … (FIG. 8)” value (TNF-α [2]) of the same compound?
The value was “least inhibition”.
